{"source": "patent US20170152245A1", "about": "(National Taiwan University, priority 2015, published 2017)", "key": {"[1]": {"tested_on": "human platelet-rich plasma", "test": "U46619-induced platelet aggregation in human platelet-rich plasma", "assay_type": "cell-based", "conditions": "U46619 1 μM", "procedure": "(§1) Human platelet suspension (PS) was prepared according to the method described previously. Briefly, blood sample, freshly obtained from healthy volunteers who had taken no medications during the preceding 2 weeks, was treated with acid citrate/dextrose (ACD) in a volume ratio of 9:1. After centrifugation at 120 g, 25° C. for 9 min, platelet-rich plasma was transferred into another plastic tube and incubated with heparin (6.4 U/ml) as well as prostaglandin E1 (1 μM). Platelets were spun down by centrifugation at 500 g, 25° C. for 8 min and subsequently washed two times with Tyrode solution (NaH2PO4 0.4 mM; NaCl 136.9 mM; KCl […]; NaHCO3 11.9 mM; CaCl2 2 mM; MgCl2 2.1 mM; glucose 11.1 mM; BSA 3.5 mg/ml; pH 7.35-7.4). The washed platelets were finally suspended in Tyrode's solution and the platelet count was adjusted to 3.75×10^8 platelets/ml. For platelet-rich plasma (PRP) preparation, whole blood was anticoagulated with 1/10 vol of sodium citrate (3.8%, w/v) and centrifuged at 150 g, 25° C. for 9 min.\nPlatelet aggregation was measured turbidimetrically with a Lumi-aggregometer (Payton Scientific) at 37° C. under stirring condition (900 rpm). […] The extent of platelet aggregation was determined by recording the increase of light transmission relative to that of control (maximal aggregation, as 100%) for 6 min after the addition of inducer. […]"}, "mice": {"tested_on": "mice", "test": "OVA-induced asthmatic mice (sensitization and airway challenge)", "assay_type": "in vivo", "procedure": "Mice were divided into groups receiving the following treatments: (1) sham sensitization plus challenge with phosphate buffered saline (PBS) (n=5), (2) sensitization plus challenge with OVA (Sigma A5503; Sigma, St. Louis, Mo.) (n=10), and (3 and 4) sensitization with OVA (i.p.) plus challenge with and nstpbp5185 (10 or 20 mg/kg) (n=6-7). […] Mice were challenged through the airway with 100 μg OVA in 40 μL PBS buffer via intranasal administration (i.n.) days 36, 37 and 38 and AHR induced by methacholine (MCh) were measured at day 39. Animals were sacrificed 24 h after the AHR measurement. The mice were placed in the main chamber of a whole body plethysmograph (Buxco Electronics, Inc., Sharon, Conn., USA) and challenged with aerosolized 0.9% normal saline accompanied by increasing doses of methacholine (6.25-50 mg/ml). Each nebulization lasted for 3 min, and after each nebulization, recordings were taken and averaged for the 3 min. The Penh values were determined, and the data were expressed as Penh values.\nSerum were collected and stored at −70° C. after centrifugation (3000 rpm, 10 min). The amount of OVA-specific IgE was determined by ELISA. Briefly, 96-well plates were coated with OVA at 10 μg/well. After the plates were blocked, 100 μl/well of diluted sera was added, and the plates were incubated at room temperature for 2 h or at 4° C. overnight. After incubation, the plates were washed five times with PBS with Tween 20 buffer, the secondary antibody (biotinylated rat anti-mouse IgE; AbD Serotec, Kidlington, UK) was added and plates were incubated for 1 h at room temperature. […] The avidin-horseradish peroxidase was removed by washing with PBS with Tween 20 buffer, and the bound enzyme substrate was detected by adding tetramethylbenzidine reagent (KPL, Gaithersburg, Md., USA). […] Optical density was measured at 450 nm (550 nm was used as a reference filter) in a microplate autoreader (Anthos Reader 2010; Anthos Labtec Instruments GmbH, Salzburg, Austria)."}, "[2]": {"tested_on": "human platelet suspension", "test": "ADP-induced platelet aggregation in human platelet suspension", "assay_type": "cell-based", "procedure": "as §1\nPlatelet aggregation was measured turbidimetrically with a Lumi-aggregometer (Payton Scientific) at 37° C. under stirring condition (900 rpm). Platelet suspensions were prewarmed to 37° C. for 2 min in a silicone-treated glass cuvette. Nstpbp5185 was added 3 min before the addition of platelet-aggregation inducers. The extent of platelet aggregation was determined by recording the increase of light transmission relative to that of control (maximal aggregation, as 100%) for 6 min after the addition of inducer. The final volume and platelet count for measuring platelet aggregation were 500 μl and 3×10^8/ml, respectively."}, "mice carotid artery": {"tested_on": "mice carotid artery", "test": "FeCl3-induced thrombus formation in mice carotid artery", "assay_type": "in vivo", "conditions": "intravenous administration", "procedure": "FIG. 14 The antithrombotic activity of nstpbp5185 in FeCl3-induced thrombi formation in mice carotid artery. (A) Mice were intravenously administered with Heparin (10 or 100 U kg^−1), Aspirin (40 or 80 μg g^−1), or different doses of nstpbp5185 (B). After 5 min, FeCl3 injury was induced by a filter paper saturated with ferric chloride solution (10%). After removal of the paper, carotid blood flow (ml min^−1) was monitored continuously until thromboembolism formation or for 60 min. (C) Mice were orally administered with different doses of Aspirin and nstpbp5185 (D). Both drugs were suspended in 1% CMC. Blood flow monitoring were recorded used analyzed Labchart software (AD instruments). Data are presented as the mean±SEM (n≧3). **P<0.01 and ***P<0.001 as compared with the vehicle control (DMSO).\nMice were intravenously or orally administered with different doses of nstpbp5185."}, "platelet suspension": {"tested_on": "platelet suspension", "test": "U46619-stimulated platelet protein tyrosine phosphorylation", "assay_type": "cell-based", "conditions": "2.5 μM; U46619 1 μM", "procedure": "FIG. 19 Effects of nstpbp5185 on U46619-stimulated protein tyrosine phosphorylation in platelet suspension. Platelets were incubated with nstpbp5185 (2.5 μM) or solvent control for 3 min and then stimulated with U46619 (1 μM) for the times indicated (second, s). Then platelets were lysed in SDS buffer and the lysates separated by SDS-PAGE (7.5%-15% acrylamide gradient) under reducing conditions. After electrophoresis, the proteins were transferred to PVDF membranes, and were incubated with several antiphosphotyrosine mAb before detection by using a peroxidase-linked second Ab and detected by chemiluminescence. Data are representative of three separate experiments.\nGiven the thromboxane receptor-blocking effect of nstpbp5185, the effect of nstpbp5185 on U46619-stimulated signal transduction in platelets was investigated. Stimulation of thromboxane receptors results in phosphorylation of PLCβ2 and activates downstream signaling pathway PKCα, PI3K, Syk, extracellular signal-regulated kinase (ERK) and focal adhesion kinase. The effect of nstpbp5185 on levels of protein tyrosine phosphorylation was examined in platelet cell lysates in different time course. […] In the presence of nstpbp5185 (2.5 μM), the overall pattern of protein tyrosine phosphorylation of signaling molecules during platelet activation was suppressed, including phospholipase Cβ2 (PLCβ2), FAK, PKCα, PI3-kinase, Syk and ERK."}}}
{"compound": "Cc1ccc(-c2nc3ccc(F)cc3n2Cc2cccc(F)c2)o1", "note": "[Ctkf6f2, 6-fluoro-1-(3-fluorobenzyl)-2-(5-methyl-2-furyl)benzimidazole]", "values": [{"measurement": "IC50", "setting": "[1]", "value": "3.27 ± 1.01", "unit": "µM"}]}
{"compound": "Cc1ccc(-c2nc3ccccc3n2Cc2ccccc2)o1", "note": "[Example 6, 1-Benzyl-2-(5-methyl-2-furyl)benzimidazole]", "values": [{"measurement": "cellular infiltration of the airways", "setting": "mice; 10 and 20 mg/kg/day", "value": "reduced"}, {"measurement": "OVA-specific IgE, IgG2a and IgG1 levels in serum", "setting": "mice; 10 or 20 mg/kg", "value": "significant reduction"}, {"measurement": "asthma symptoms after OVA challenge", "setting": "mice; Group 3 and Group 4 (10 or 20 mg/kg)", "value": "alleviated symptoms"}, {"measurement": "effect on platelet aggregation caused by ADP", "setting": "[2]; data not shown", "value": "little effects"}, {"measurement": "% inhibition ADF", "setting": "[2]; human platelet suspension, preliminary, compound concentration not given", "value": 10.9, "unit": "%"}, {"measurement": "ED50 FeCl3-induced thrombus formation", "setting": "mice carotid artery", "value": "≈ 2.6 μg g^−1"}, {"measurement": "protein tyrosine phosphorylation of signaling molecules (PLCβ2, FAK, PKCα, PI3-kinase, Syk, ERK)", "setting": "platelet suspension", "value": "suppressed"}]}
